According to patent US20230265151A1, “GIP/GLP1 CO-AGONIST COMPOUNDS” (priority 2020, published 2023):
Read-outs that look alike come from different tables or passages of the source.

Columns and labels:
[1] = biological target: T1, hGIPR (Homo sapiens, UniProt P48546); assay: Functional cAMP formation (HTRF) in HEK-293 clonal cells expressing hGIPR, 0.1% bovine casein, without or with 1.0% human serum albumin; assay type: cell-based
T1 construct: expressed in transfected cells
T1 sequence (P48546 22-466): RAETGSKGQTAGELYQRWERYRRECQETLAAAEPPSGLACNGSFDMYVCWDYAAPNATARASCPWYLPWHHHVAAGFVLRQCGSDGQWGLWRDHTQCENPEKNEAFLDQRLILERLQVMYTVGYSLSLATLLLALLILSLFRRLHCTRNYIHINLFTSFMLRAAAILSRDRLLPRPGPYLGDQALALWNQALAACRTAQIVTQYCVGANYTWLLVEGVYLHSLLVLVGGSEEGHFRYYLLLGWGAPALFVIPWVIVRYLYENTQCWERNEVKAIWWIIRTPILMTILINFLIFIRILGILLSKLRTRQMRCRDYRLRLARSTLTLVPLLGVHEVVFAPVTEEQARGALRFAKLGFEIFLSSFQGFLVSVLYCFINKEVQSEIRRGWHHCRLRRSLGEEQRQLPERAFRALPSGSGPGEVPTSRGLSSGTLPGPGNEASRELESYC
Procedure, shortened: (§1)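 Cells were stimulated with peptide for 30 min at 37° C, then intracellular cAMP was measured by competitive HTRF (665/620 nm ratio) and converted to nM using a cAMP standard curve. Relative EC50 and Emax came from four-parameter logistic fits of percent maximal response against peptide concentration.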

[2] = biological target: T2, human GIP receptor (hGIPR) (Homo sapiens, UniProt P48546); assay: [125I]-GIP binding, SPA with membranes of CHO cells expressing hGIPR
T2 construct: expressed in transfected cells; crude membranes
T2 sequence (P48546 22-466): T1 sequence (P48546 22-466)

[3] = biological target: T3, hGCGR (Homo sapiens, UniProt P47871); assay: Functional cAMP formation (HTRF) in HEK-293 clonal cells expressing hGCGR, 0.1% bovine casein, without or with 1.0% human serum albumin; assay type: cell-based
T3 construct: expressed in transfected cells
T3 sequence (P47871 26-477): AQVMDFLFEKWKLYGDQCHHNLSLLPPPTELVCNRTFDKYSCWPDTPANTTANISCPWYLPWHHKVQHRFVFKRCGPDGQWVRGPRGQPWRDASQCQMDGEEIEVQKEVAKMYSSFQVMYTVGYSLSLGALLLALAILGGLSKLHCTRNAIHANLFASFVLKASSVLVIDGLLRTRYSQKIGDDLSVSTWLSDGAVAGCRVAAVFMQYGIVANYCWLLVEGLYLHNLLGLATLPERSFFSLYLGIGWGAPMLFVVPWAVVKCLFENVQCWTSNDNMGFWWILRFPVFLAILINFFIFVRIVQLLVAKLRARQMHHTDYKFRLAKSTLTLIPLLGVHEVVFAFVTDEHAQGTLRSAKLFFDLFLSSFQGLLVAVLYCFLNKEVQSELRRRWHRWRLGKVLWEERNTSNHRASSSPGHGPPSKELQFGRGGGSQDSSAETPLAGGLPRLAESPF
Procedure, shortened: as §1

[4] = biological target: hGLP-1R (Homo sapiens, UniProt P43220); assay: Functional cAMP formation (HTRF) in HEK-293 clonal cells expressing hGLP-1R, 0.1% bovine casein, without or with 1.0% human serum albumin; assay type: cell-based; design: expressed in transfected cells; details: 37° C.; for Emax: read-out: hGLP-1R Emax, % ± SEM; for EC50: read-out: hGLP-1R EC50, nM (SEM, n)
hGLP-1R, sequence (P43220 24-463): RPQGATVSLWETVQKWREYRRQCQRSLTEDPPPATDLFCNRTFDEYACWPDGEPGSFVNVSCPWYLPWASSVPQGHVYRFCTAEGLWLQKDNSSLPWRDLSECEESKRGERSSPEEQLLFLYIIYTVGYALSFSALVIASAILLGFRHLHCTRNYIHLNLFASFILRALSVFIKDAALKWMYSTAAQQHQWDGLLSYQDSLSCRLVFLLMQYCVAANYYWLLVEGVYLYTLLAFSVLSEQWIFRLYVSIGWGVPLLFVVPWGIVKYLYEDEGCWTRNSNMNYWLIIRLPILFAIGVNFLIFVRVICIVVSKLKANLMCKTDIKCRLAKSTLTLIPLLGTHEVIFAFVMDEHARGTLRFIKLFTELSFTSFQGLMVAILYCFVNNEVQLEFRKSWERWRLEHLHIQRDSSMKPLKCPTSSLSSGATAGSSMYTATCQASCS
Procedure, shortened: as §1

[5] = biological target: T4, human Gcg receptor (hGcgR) (Homo sapiens, UniProt P47871); assay: [125I]-Glucagon binding, SPA with membranes of HEK293 cells expressing hGcgR
T4 construct: expressed in transfected cells; crude membranes
T4 sequence (P47871 26-477): as the sequence (P47871 26-477) above

[6] = HEK293, cAMP, 37° C., 0.1% bovine casein and 1.0% human serum albumin, percent of maximal response to GIP(1-42)NH2, read-out: hGIPR Emax, % ± SEM
[7] = cAMP, 37° C., 0.1% bovine casein (no human serum albumin), geometric mean, read-out: hGIPR EC50, nM (SEM, n)
[8] = human GIPR, geometric mean (SEM, n), read-out: Binding Affinity Ki, nM (SEM, n) hGIPR
[9] = cAMP, 37° C., 0.1% bovine casein (no human serum albumin), geometric mean, read-out: hGCGR EC50, nM (SEM, n)
[10] = cAMP, 37° C., 0.1% bovine casein and 1.0% human serum albumin, geometric mean (SEM, n), read-out: hGCGR EC50, nM (SEM, n)
[11] = HEK293, cAMP, 0.1% bovine casein, percent of maximal response to GLP-1(7-36)NH2, arithmetic mean
[12] = cAMP, 0.1% bovine casein (no human serum albumin), geometric mean
[13] = cAMP, 0.1% bovine casein and 1.0% human serum albumin, geometric mean (SEM, n)
[14] = human GcgR, geometric mean (SEM, n), read-out: Binding Affinity Ki, nM (SEM, n) hGCGR

Row | SMILES | Emax [1, 6] [%] | EC50 [1, 7] [nM] | Ki [2, 8] [nM] | EC50 [3, 9] [nM] | EC50 [3, 10] [nM] | Emax [4, 11] [%] | EC50 [4, 12] [nM] | EC50 [4, 13] [nM] | Ki [5, 14] [nM] | further results
1 | CC[C@H](C)[C@H](NC(=O)[C@H](CC(C)C)NC(=O)[C@](C)(Cc1ccc(O)cc1)NC(=O)[C@@H](CCC(=O)O)NC(=O)[C@@H](NC(=O)[C@H](Cc1ccccc1)NC(=O)[C@H](CCCCNC(=O)COCCOCCNC(=O)COCCOCCNC(=O)CC[C@H](NC(=O)CCCCCCCCCCCCC(=O)O)C(=O)O)NC(=O)C(C)(C)NC(=O)[C@H](CCC(N)=O)NC(=O)[C@H](C)NC(=O)[C@H](CCC(N)=O)NC(=O)[C@H](CCCN)NC(=O)[C@H](CC(=O)O)NC(=O)[C@H](CC(C)C)NC(=O)[C@](C)(CC(C)C)NC(=O)[C@@H](NC(=O)C(C)(C)NC(=O)[C@H](Cc1ccncc1)NC(=O)[C@H](CC(=O)O)NC(=O)[C@H](CO)NC(=O)[C@@H](NC(=O)[C@](C)(Cc1ccccc1F)NC(=O)[C@@H](NC(=O)CNC(=O)[C@H](CCC(=O)O)NC(=O)C(C)(C)NC(=O)[C@@H](N)Cc1ccc(O)cc1)[C@@H](C)O)[C@@H](C)O)[C@@H](C)CC)[C@@H](C)CC)C(=O)N[C@@H](CCCCNC(=O)COCCOCCNC(=O)COCCOCCNC(=O)CC[C@H](NC(=O)CCCCCCCCCCCCC(=O)O)C(=O)O)C(=O)NCC(=O)NCC(=O)N1CCC[C@H]1C(=O)N[C@@H](CO)C(=O)N[C@@H](CO)C(=O)NCC(=O)N[C@@H](C)C(=O)N1CCC[C@H]1C(=O)N1CCC[C@H]1C(=O)N1CCC[C@H]1C(=O)N[C@@H](CO)C(N)=O [Example 488] | 85.5 | 0.0115 | 0.064 | > 10100 | > 9950 | 113 | 0.207 | 13 | > 958 | EC50 ([1]; cAMP, 37° C., 0.1% bovine casein and 1.0% human serum albumin, geometric mean (SEM, n), read-out: hGIPR EC50, nM (SEM, n)): 0.718 nM
2 | CC[C@H](C)[C@H](NC(=O)[C@H](CC(C)C)NC(=O)[C@](C)(Cc1ccc(O)cc1)NC(=O)[C@H](CCCCNC(=O)COCCOCCNC(=O)COCCOCCNC(=O)COCCOCCNC(=O)CC[C@H](NC(=O)CCCCCCCCCCCCC(=O)O)C(=O)O)NC(=O)[C@@H](NC(=O)[C@H](Cc1ccccc1)NC(=O)[C@H](CCC(=O)O)NC(=O)C(C)(C)NC(=O)[C@H](CCC(N)=O)NC(=O)[C@H](C)NC(=O)[C@H](CCC(N)=O)NC(=O)[C@H](CCCN)NC(=O)[C@H](CC(=O)O)NC(=O)[C@H](CC(C)C)NC(=O)[C@](C)(CC(C)C)NC(=O)[C@@H](NC(=O)C(C)(C)NC(=O)[C@H](Cc1ccncc1)NC(=O)[C@H](CC(=O)O)NC(=O)[C@H](CO)NC(=O)[C@@H](NC(=O)[C@](C)(Cc1ccccc1F)NC(=O)[C@@H](NC(=O)CNC(=O)[C@H](CCC(=O)O)NC(=O)C(C)(C)NC(=O)[C@@H](N)Cc1ccc(O)cc1)[C@@H](C)O)[C@@H](C)O)[C@@H](C)CC)[C@@H](C)CC)C(=O)N[C@@H](CCCCNC(=O)COCCOCCNC(=O)COCCOCCNC(=O)COCCOCCNC(=O)CC[C@H](NC(=O)CCCCCCCCCCCCC(=O)O)C(=O)O)C(=O)NCC(=O)NCC(=O)N1CCC[C@H]1C(=O)N[C@@H](CO)C(=O)N[C@@H](CO)C(=O)NCC(=O)N[C@@H](C)C(=O)N1CCC[C@H]1C(=O)N1CCC[C@H]1C(=O)N1CCC[C@H]1C(=O)N[C@@H](CO)C(N)=O [Example 460] | 89.5 | 0.0108 | 0.0528 | > 9950 | > 9950 | 111 | 0.187 | 6.31 | > 959 | –
3 | CC[C@H](C)[C@H](NC(=O)[C@H](CC(C)C)NC(=O)[C@](C)(Cc1ccc(O)cc1)NC(=O)[C@@H](CCC(=O)O)NC(=O)[C@@H](NC(=O)[C@H](Cc1ccccc1)NC(=O)[C@H](CCCCNC(=O)COCCOCCNC(=O)COCCOCCNC(=O)CC[C@H](NC(=O)CCCCCCCCCCCCC(=O)O)C(=O)O)NC(=O)C(C)(C)NC(=O)[C@H](CCC(N)=O)NC(=O)[C@H](C)NC(=O)[C@H](CCCCNC(=O)COCCOCCNC(=O)COCCOCCNC(=O)CC[C@H](NC(=O)CCCCCCCCCCCCC(=O)O)C(=O)O)NC(=O)[C@H](CCCN)NC(=O)[C@H](CC(=O)O)NC(=O)[C@H](CC(C)C)NC(=O)[C@](C)(CC(C)C)NC(=O)[C@@H](NC(=O)[C@H](CO)NC(=O)[C@H](Cc1ccncc1)NC(=O)[C@H](CC(=O)O)NC(=O)[C@H](CO)NC(=O)[C@@H](NC(=O)[C@](C)(Cc1ccccc1F)NC(=O)[C@@H](NC(=O)CNC(=O)[C@H](CCC(=O)O)NC(=O)C(C)(C)NC(=O)[C@@H](N)Cc1ccc(O)cc1)[C@@H](C)O)[C@@H](C)O)[C@@H](C)CC)[C@@H](C)CC)C(=O)N[C@@H](CCC(=O)O)C(=O)NCC(=O)NCC(=O)N1CCC[C@H]1C(=O)N[C@@H](CO)C(=O)N[C@@H](CO)C(=O)NCC(=O)N[C@@H](C)C(=O)N1CCC[C@H]1C(=O)N1CCC[C@H]1C(=O)N1CCC[C@H]1C(=O)N[C@@H](CO)C(N)=O [Example 15] | – | – | 0.0629 | – | – | – | – | – | > 966 | EC50 ([1]; 0.1% bovine casein and 1.0% human serum albumin, 37° C., geometric mean, read-out: hGIPR EC50, nM (SEM, n)): 0.573 nM; Emax ([1]; HEK293, 0.1% bovine casein and 1.0% human serum albumin, 37° C., percent of maximal response to GIP(1-42)NH2, read-out: hGIPR Emax, % ± SEM): 94.4 ± 1.01%; Emax ([1]; HEK293, percent of maximal response to GIP(1-42)NH2, 37° C., 0.1% bovine casein, arithmetic mean, read-out: hGIPR Emax, % ± SEM): 95.9 ± 2.34%; EC50 ([1]; cAMP, incubated at 37° C., 0.1% bovine casein (no human serum albumin), geometric mean, read-out: hGIPR EC50, nM (SEM, n)): 0.0133 nM; EC50 ([3]; 0.1% bovine casein and 1.0% human serum albumin, 37° C., geometric mean, read-out: hGCGR EC50, nM (SEM, n)): > 9950 nM; EC50 ([3]; cAMP, incubated at 37° C., 0.1% bovine casein (no human serum albumin), geometric mean, read-out: hGCGR EC50, nM (SEM, n)): > 9950 nM; EC50 ([4]; 0.1% bovine casein and 1.0% human serum albumin, geometric mean): 24.8 nM; Emax ([4]; HEK293, 0.1% bovine casein and 1.0% human serum albumin, percent of maximal response to GLP-1(7-36)NH2): 93.2 ± 3.68%; Emax ([4]; HEK293, percent of maximal response to GLP-1(7-36)NH2, 0.1% bovine casein, arithmetic mean): 94.3 ± 4.44%
4 | CC[C@H](C)[C@H](NC(=O)[C@H](CC(C)C)NC(=O)[C@](C)(Cc1ccc(O)cc1)NC(=O)[C@H](CCCCNC(=O)COCCOCCNC(=O)COCCOCCNC(=O)CC[C@H](NC(=O)CCCCCCCCCOc1ccc(C(=O)O)cc1)C(=O)O)NC(=O)[C@@H](NC(=O)[C@H](Cc1ccccc1)NC(=O)[C@H](CCC(=O)O)NC(=O)C(C)(C)NC(=O)[C@H](CCC(N)=O)NC(=O)[C@H](C)NC(=O)[C@H](CCCCNC(=O)COCCOCCNC(=O)COCCOCCNC(=O)CC[C@H](NC(=O)CCCCCCCCCOc1ccc(C(=O)O)cc1)C(=O)O)NC(=O)[C@H](CCCN)NC(=O)[C@H](CC(=O)O)NC(=O)[C@H](CC(C)C)NC(=O)[C@](C)(CC(C)C)NC(=O)[C@@H](NC(=O)[C@H](CO)NC(=O)[C@H](Cc1ccncc1)NC(=O)[C@H](CC(=O)O)NC(=O)[C@H](CO)NC(=O)[C@@H](NC(=O)[C@](C)(Cc1ccccc1F)NC(=O)[C@@H](NC(=O)CNC(=O)[C@H](CCC(=O)O)NC(=O)C(C)(C)NC(=O)[C@@H](N)Cc1ccc(O)cc1)[C@@H](C)O)[C@@H](C)O)[C@@H](C)CC)[C@@H](C)CC)C(=O)N[C@@H](CCC(=O)O)C(=O)NCC(=O)NCC(=O)N1CCC[C@H]1C(=O)N[C@@H](CO)C(=O)N[C@@H](CO)C(=O)NCC(=O)N[C@@H](C)C(=O)N1CCC[C@H]1C(=O)N1CCC[C@H]1C(=O)N1CCC[C@H]1C(=O)N[C@@H](CO)C(N)=O [Example 128] | – | – | – | – | – | – | – | – | – | Emax ([1]; HEK293, read-out: hGIPR Emax, % ± SEM, percent of maximal response to GIP(1-42)NH2, 37° C., 0.1% bovine casein, arithmetic mean): 98.5 ± 2.47%; EC50 ([1]; hGIPR EC50, nM (SEM, n), cAMP, incubated at 37° C., 0.1% bovine casein (no human serum albumin), geometric mean): 0.0232 nM; Ki [2]: 0.0314 nM; EC50 ([3]; hGCGR EC50, nM (SEM, n), cAMP, incubated at 37° C., 0.1% bovine casein (no human serum albumin), geometric mean): > 9950 nM; Ki [5]: > 955 nM
